Measured values as given in patent US20090203775A1, “Novel compound and a novel microorganism for producing the novel compound” (Haiyi Biotech Pte, Ltd., priority 2005, published 2009).

Columns and labels:
Veo cells = test: Half toxic concentration in the antiviral test cells; format: cell-based
Protocol: Methods: The Veo cells were cultured in 96-well plates. The cells were infected with Coxsakie B3 virus for 2 hours after 24 hours of incubation. The solution containing the virus was then discarded. The samples were then added into the wells at the concentrations with the appropriate controls. The cell pathological extent (CPE) was observed 36 hours later. The half inhibitory concentration (IC50) was calculated by using the method of Reed-Muench.
(1) “-” means that the sample has no anti Coxsakie B3 virus effect at the maximal dose with no toxicity. (2) TC50 indicates the half toxic concentration; IC50 indicates the half inhibitory concentration for the virus; SI indicates the selective index, calculated as the follow: SI=TC50/IC50

[1] = system: B16 (mouse melanocytoma cells); test: MTT assay, percentage of killing, B16; format: cell-based; details: 24~48 hours
Protocol: (§1) 1. Method: 3-[4,5-dimethyl(thiazol-2-yl)-3,5-diphery] tetradium bromide (MTT) assay. 2. Culture medium: RPMI-1640 medium containing 2% calf serum 3. Apparatus: (1) CO2 incubator, Sherton USA; (2) 318MC Enzyme analysis machine, SANCO Equipments Company Ltd. 4. Conditions of the culture: Temp. 37° C.; Concentration of CO2: 4.7%, culture duration: 24˜48 hours.

[2] = system: L1210 (mouse lymph leukemia cells); test: Survival of mice transplanted with L1210; format: in vivo, BDF-1 mice; details: d 1, d 6, s.c.; for duration of survival (Ave): control 15
Protocol: Aims: To observe the effect of prolonging the survival of the compound of formula (I) on mice transplanted with L1210, a kind of mouse lymph leukemia cells.
Methods: 18 BDF-1 mice, male. L1210 (mouse lymph leukemia cells) were administered by i.p. injection, at the dose of 1×10^5 per mouse. Mice were divided into three groups randomly, with six animals per group. The test group was administered with the drug on day 1 and day 6 by subcutaneous (s.c.) injection. An equal volume of saline was administered in control animals.
Dosage: Test group 1: 50 mg/kg the lyophilized powder injection of the compound of formula (I) was administered by s.c. injection, • Test group 2: 25 mg/kg the lyophilized powder injection of the compound of formula (I) was administered by s.c. injection, • Test group 3: 12.5 mg/kg the lyophilized powder injection of the compound of formula (I) was administered by s.c. injection.

[3] = system: T. rubrum, T. mentagrophytes, C. albicans and B. subtilis; test: Germicidal effect, MTT assay, summary statement for all strains; format: cell-based; details: ≧50 μg/well; summary for the strains of Table 8
Protocol: (§2) Aims: To observe the germicidal effect of the compound of formula (I) on T. rubrum, T. mentagrophytes, C. albicans and B. subtilis. Method: […] Concentration of the samples were: (1) 2 mg/ml; (2) 1 mg/ml; (3) 0.5 mg/ml; (4) 0.25 mg/ml; Volume of the sample: 50 ul/well.

[4] = system: human stomach cancer cells MGC-803; test: Nude mouse transplanted with human stomach cancer MGC-803, tumor growth inhibition; format: in vivo, BALB/cA nude mice
Protocol: Aim: To observe the growth inhibitory effect and the intensity of the effect of the compound of formula (I) in nude mouse transplanted with human stomach cancer cells MGC803.
Material: The lyophilized injection powder of the compound of formula (I), 15 mg/vial, diluted to the needed concentration by 0.9% saline before use.
Dosages: the dosages of the compound of formula (I) are 15, 10 and 5 mg/kg.
Animals: BALB/cA nude mice, female, 40˜45-days old, body weight is 18±2 g. The number of the animals in per group: negative control: 12; group with drug: 6.
Transplanted tumor: Human stomach cancer MGC-803 cells were transplanted into the nude mice as follows. Approximately half a million […] of the MGC-803 cells was injected subcutaneously (s.c.) into the mice. The tumors were used after breeding the mice for three generations.
Methods: Tumors in peak growth were cut into the sizes of around 1.5 mm^3. Under aseptic conditions the tumours were injected subcutaneously to the right axilla of the mouse. The size of the transplanted tumor is then measure and the animals randomly divided into several groups when the size of the tumor reaches 100-200 mm^3. The drug is administered by intravenous (i.v.) injection on the 1st and 6th days. Saline is administered as control. The size of the tumor is examined every two weeks together with the weight of the mouse. The tumor volume(TV) is calculated as:
Where, a and b represent length and width, respectively. The relative tumor volume (RTV) is calculated as: RTV=Vt/V0, where V0 is the volume of the tumor before administering the compound, Vt is the volume of the tumor after administering the compound. The index for evaluating the activity of anticancer is the relative growth rate of tumor (T/C), which is calculated as: […]
wherein, TRTV is the administering group; CRTV is the control group.
The standard for evaluating the treatment effect: T/C (%)>60% means no effect, T/C<=60% and p<0.05 means having a significant effect.

C. albicans = test: Germicidal effect, MTT assay, C. albicans; format: cell-based
Protocol: as §2

[5] = system: Eca-109 (esophageal cancer cells); test: MTT assay, percentage of killing, Eca-109; format: cell-based; details: for percentage of killing: MTT, 24~48 hours
Protocol: as §1

O=C1CC[C@H](c2ccc(O)c3c2C(=O)C2OC2[C@H]3O)c2cccc(O)c21 (stereo partly shown) [compound of formula (I)]
TC50 (half toxic concentration) (Veo cells): 24.7 µg/mL | percentage of killing ([1]; B16, 312.5 ng/ml): 1.06% | percentage of killing ([1]; B16, 625 ng/ml): 6.37% | percentage of killing ([1]; B16, 1.25 ug/ml): 0% | percentage of killing ([1]; B16, 2.5 ug/ml): 51.75% | percentage of killing ([1]; B16, 5 ug/ml): 72.53% | prolonging days ([2]; 12.5 mg/kg): 5 days | rate of prolonging (%) ([2]; 12.5 mg/kg): 33% | duration of survival (Ave) ([2]; 12.5 mg/kg): 20 | prolonging days ([2]; 25 mg/kg): 7 days | rate of prolonging (%) ([2]; 25 mg/kg): 47% | duration of survival (Ave) ([2]; 25 mg/kg): 22 | prolonging days ([2]; 50 mg/kg): 13 days | rate of prolonging (%) ([2]; 50 mg/kg): 87% | duration of survival (Ave) ([2]; 50 mg/kg): 28 | antifungal effects [3]: 99.9% | growth inhibitory effect (in words) ([4]; 15 mg/kg on day 1 and day 6, i.v., T/C<=60% and p<0.05 means significant effect): significant growth inhibitory effect | weight(g) final ([4]; 15 mg/kg, d 1, d 6, i.v., lyophilized powder, body weight of mice, final): 17.2 g | weight(g) Initial ([4]; 15 mg/kg, d 1, d 6, i.v., lyophilized powder, body weight of mice, initial): 18.3 g | T/C (%) ([4]; 15 mg/kg, d 1, d 6, i.v., relative growth rate of tumor, TRTV/CRTV x 100): 0.18% | RTV ([4]; 15 mg/kg, d 1, d 6, i.v., relative tumor volume Vt/V0): 0.02 ± 4.3 | complete disappearance of tumor ([4]; 15 mg/kg, d 1, d 6, i.v., three weeks after the treatment, 6 mice): the tumor in one mouse disappeared completely | TV(mm^3) d 0 ([4]; 15 mg/kg, d 1, d 6, i.v., tumor volume before treatment): 102 ± 22 mm^3 | TV(mm^3) d 21 ([4]; 15 mg/kg, d 1, d 6, i.v., tumor volume d 21): 2.2 ± 0.04 mm^3 | Gemicidal effect (killing rate) (C. albicans; 12.5 μg/ml): 50% | Gemicidal effect (killing rate) (C. albicans; 25 μg/ml): 75% | Gemicidal effect (killing rate) (C. albicans; 50 μg/ml): 99% | Gemicidal effect (killing rate) (C. albicans; 100 μg/ml): 99.5% | percentage of killing ([5]; Eca-109, 312.5 ng/ml): 0% | percentage of killing ([5]; Eca-109, 625 ng/ml): 0% | percentage of killing ([5]; Eca-109, 1.25 ug/ml): 0% | percentage of killing ([5]; Eca-109, 2.5 ug/ml): 0% | percentage of killing ([5]; Eca-109, 5 ug/ml): 0.18% | effect on Eca-109 (in words) ([5]; Eca-109, MTT): no effect
